Test results taken from patent US10543212B2, “Substituted amines for treating cardiac diseases” (Cardurion Pharmaceuticals, LLC, priority 2017, dated 2020).
pIC50: −log10 of the molar value.

Target: T1, Full-length, GST-tagged, human CaMKIIδ (Homo sapiens, UniProt Q13557)
T1 construct: Full-Length, Glutathione-S-Transferase(GST)-Tagged, Human CaMKIIδ was purchased from Carna Biosciences; purchased Carna Biosciences 02-111
Assay: CaMKIIδ binding assay (TR-FRET with BODIPY-labeled probe ligand)
Procedure, shortened: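 TR-FRET probe-displacement binding: 0.5 nM GST-CaMKIIδ with 10 μg/mL calmodulin, 1 mM CaCl2, 0.21 nM Tb-anti-GST Ab and 300 nM BODIPY probe in HEPES pH 7.6 buffer. Eight-point 4-fold dilutions, 1 hr at room temperature. IC50 from logistic fit; 100% inhibition defined by 3 μM parent compound.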

[1] = CaMKIIδ binding assay, results of Table 2
[2] = Table 2, CaMKIIδ binding assay, activity given as class A/B/C
[3] = Table 2, activity class for CaMKIIδ
[4] = CaMKIIδ binding assay, activity class per Table 2

T1 sequence (Q13557 1-478 isoform Q13557-12): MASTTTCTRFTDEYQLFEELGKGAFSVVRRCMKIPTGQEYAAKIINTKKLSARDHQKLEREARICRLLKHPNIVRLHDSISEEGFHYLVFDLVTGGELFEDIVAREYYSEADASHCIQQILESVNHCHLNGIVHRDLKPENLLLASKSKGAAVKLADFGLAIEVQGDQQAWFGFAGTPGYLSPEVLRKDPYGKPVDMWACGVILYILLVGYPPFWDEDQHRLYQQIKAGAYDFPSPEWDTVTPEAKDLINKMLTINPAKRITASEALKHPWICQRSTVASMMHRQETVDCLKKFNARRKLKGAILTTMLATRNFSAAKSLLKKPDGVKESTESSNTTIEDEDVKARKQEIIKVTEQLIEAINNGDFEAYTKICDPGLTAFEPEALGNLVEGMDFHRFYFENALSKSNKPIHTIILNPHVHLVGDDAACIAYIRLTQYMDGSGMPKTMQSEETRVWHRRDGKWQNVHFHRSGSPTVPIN

**Q.** With `COc1cc(C2CCCNC2)ccc1Nc1ncc(-c2ccc(Cl)c(O[C@@H](C)Cn3cnnn3)c2)cn1` (stereo partly drawn) [Example 473, 5-(3-(((S)-1-(1H-tetrazol-1-yl)propan-2-yl)oxy)-4-chlorophenyl)-N-(2-methoxy-4-(piperidin-3-yl)phenyl)pyrimidin-2-amine] as the compound, how does the pIC50 [1] read?
**A.** The pIC50 was over 8.00.

**Q.** `COc1ccc(N2CCNCC2)cc1Nc1ncc(-c2ccc(Cl)c(O[C@@H](C)Cn3cnnn3)c2)cn1` [Example 533, (S)-5-(3-((1-(1H-tetrazol-1-yl)propan-2-yl)oxy)-4-chlorophenyl)-N-(2-methoxy-5-(piperazin-1-yl)phenyl)pyrimidin-2-amine] was tested. Which pIC50 [1] did it give?
**A.** Its pIC50 is over 8.00.

**Q.** `Cc1ccc(-c2cnc(Nc3cn(C4CCN(C5CCOCC5)CC4)nc3OCC(F)(F)F)nc2)cc1O[C@@H](C)Cn1cnnn1` [Example 788, (S)-5-(3-((1-(1H-tetrazol-1-yl)propan-2-yl)oxy)-4-methylphenyl)-N-(1-(1-(tetrahydro-2H-pyran-4-yl)piperidin-4-yl)-3-(2,2,2-trifluoroethoxy)-1H-pyrazol-4-yl)pyrimidin-2-amine] was tested. Which pIC50 [2] did it give?
**A.** Its pIC50 is over 8.00.

**Q.** With `COc1cc2c(cc1Nc1ncc(-c3ccc(Cl)c(O[C@@H](C)Cn4cnnn4)c3)cn1)CN(C(=O)C(F)(F)F)CC2` [Example 460, (S)-1-(7-((5-(3-((1-(1H-tetrazol-1-yl)propan-2-yl)oxy)-4-chlorophenyl)pyrimidin-2-yl)amino)-6-methoxy-3,4-dihydroisoquinolin-2(1H)-yl)-2,2,2-trifluoroethan-1-one] as the compound, how does the pIC50 [1] read?
**A.** The pIC50 was at most 7.00.

**Q.** With `COc1ccc(C(=O)N2CCCNCC2)cc1Nc1ncc(-c2ccc(Cl)c(O[C@@H](C)Cn3cnnn3)c2)cn1` [Example 593, (S)-(3-((5-(3-((1-(1H-tetrazol-1-yl)propan-2-yl)oxy)-4-chlorophenyl)pyrimidin-2-yl)amino)-4-methoxyphenyl) (1,4-diazepan-1-yl)methanone] as the compound, how does the pIC50 [3] read?
**A.** Its pIC50 is over 8.00.

**Q.** With `C[C@@H](Cn1cnnn1)Oc1cc(-c2cnc(Nc3cn(C4CC5(C4)CN(C4CCOCC4)C5)nc3OCC(F)(F)F)nc2)ccc1C(F)F` [Example 939, (S)-5-(3-((1-(1H-tetrazol-1-yl)propan-2-yl)oxy)-4-(difluoromethyl)phenyl)-N-(1-(2-(tetrahydro-2H-pyran-4-yl)-2-azaspiro[3.3]heptan-6-yl)-3-(2,2,2-trifluoroethoxy)-1H-pyrazol-4-yl)pyrimidin-2-amine] as the compound, how does the pIC50 [4] read?
**A.** The pIC50 was over 8.00.

**Q.** How did the pIC50 [3] turn out when `C[C@@H](Cn1cnnn1)Oc1cc(-c2cnc(Nc3cn([C@@H]4C[C@H]5CC[C@@H](C4)N5C4CCOCC4)nc3C(F)(F)F)nc2)ccc1Cl` [Example 703, 5-(3-(((S)-1-(1H-tetrazol-1-yl)propan-2-yl)oxy)-4-chlorophenyl)-N-(1-((1R,3s,5S)-8-(tetrahydro-2H-pyran-4-yl)-8-azabicyclo[3.2.1]octan-3-yl)-3-(trifluoromethyl)-1H-pyrazol-4-yl)pyrimidin-2-amine] was run?
**A.** Its pIC50 is over 8.00.

**Q.** How did the pIC50 [4] turn out when `C[C@@H](Cn1cnnn1)Oc1cc(-c2cnc(Nc3cn(CC4(O)CCN(C5CCOCC5)CC4)nc3OCC(F)(F)F)nc2)ccc1Cl` [Example 909, (S)-4-((4-((5-(3-((1-(1H-tetrazol-1-yl)propan-2-yl)oxy)-4-chlorophenyl)pyrimidin-2-yl)amino)-3-(2,2,2-trifluoroethoxy)-1H-pyrazol-1-yl)methyl)-1-(tetrahydro-2H-pyran-4-yl)piperidin-4-ol] was run?
**A.** The pIC50 was over 8.00.

**Q.** With `COCCN1CC2(CC(n3cc(Nc4ncc(-c5ccc(Cl)c(O[C@@H](C)Cn6cnnn6)c5)cn4)c(OCC(F)(F)F)n3)C2)C1` [Example 979, (S)-5-(3-((1-(1H-tetrazol-1-yl)propan-2-yl)oxy)-4-chlorophenyl)-N-(1-(2-(2-methoxyethyl)-2-azaspiro[3.3]heptan-6-yl)-3-(2,2,2-trifluoroethoxy)-1H-pyrazol-4-yl)pyrimidin-2-amine] as the compound, how does the pIC50 [4] read?
**A.** The pIC50 was over 8.00.

**Q.** `COc1cccc(-n2cc(Nc3ncc(-c4ccc(Cl)c(O[C@@H](C)Cn5cnnn5)c4)cn3)c(OCC(F)(F)F)n2)n1` [Example 878, (S)-5-(3-((1-(1H-tetrazol-1-yl)propan-2-yl)oxy)-4-chlorophenyl)-N-(1-(6-methoxypyridin-2-yl)-3-(2,2,2-trifluoroethoxy)-1H-pyrazol-4-yl)pyrimidin-2-amine] was tested. Which pIC50 [2] did it give?
**A.** Its pIC50 is at most 7.00.

**Q.** `C[C@@H](Cn1cnnn1)Oc1cc(-c2cnc(Nc3cn(C4(C(N)=O)CCC4)nc3OCC(F)(F)F)nc2)ccc1Cl` [Example 917, (S)-1-(4-((5-(3-((1-(1H-tetrazol-1-yl)propan-2-yl)oxy)-4-chlorophenyl)pyrimidin-2-yl)amino)-3-(2,2,2-trifluoroethoxy)-1H-pyrazol-1-yl)cyclobutane-1-carboxamide] was tested. Which pIC50 [4] did it give?
**A.** Its pIC50 is over 8.00.

**Q.** How did the pIC50 [1] turn out when `COc1cc2c(cc1Nc1ncc(-c3ccc(Cl)c(O[C@@H](C)Cn4cnnn4)c3)cn1)CN(C(=O)CN1CCOCC1)CC2` [Example 501, (S)-1-(7-((5-(3-((1-(1H-tetrazol-1-yl)propan-2-yl)oxy)-4-chlorophenyl)pyrimidin-2-yl)amino)-6-methoxy-3,4-dihydroisoquinolin-2(1H)-yl)-2-morpholinoethan-1-one] was run?
**A.** Its pIC50 is 7.00 to 8.00.

**Q.** With `CC(O)Cn1cc(Nc2ncc(-c3ccc(Cl)c(O[C@@H](C)Cn4cnnn4)c3)cn2)c(OCC(F)(F)F)n1` (stereo partly drawn) [Example 799, 1-(4-((5-(3-(((S)-1-(1H-tetrazol-1-yl)propan-2-yl)oxy)-4-chlorophenyl)pyrimidin-2-yl)amino)-3-(2,2,2-trifluoroethoxy)-1H-pyrazol-1-yl)propan-2-ol] as the compound, how does the pIC50 [2] read?
**A.** Its pIC50 is over 8.00.

**Q.** How did the pIC50 [2] turn out when `CCn1ncc(Nc2ncc(-c3ccc(Cl)c(O[C@@H](C)Cn4cnnn4)c3)cn2)c1C(=O)N1CCOCC1` [Example 865, (S)-(4-((5-(3-((1-(1H-tetrazol-1-yl)propan-2-yl)oxy)-4-chlorophenyl)pyrimidin-2-yl)amino)-1-ethyl-1H-pyrazol-5-yl)(morpholino)methanone] was run?
**A.** Its pIC50 is at most 7.00.

**Q.** How did the pIC50 [2] turn out when `C[C@@H](Cn1cnnn1)Oc1cc(-c2cnc(Nc3cn([C@H]4CC[C@@H](N5CC(O)(C(F)(F)F)C5)CC4)nc3C(F)(F)F)nc2)ccc1Cl` [Example 856, 1-(cis-4-(4-((5-(3-(((S)-1-(1H-tetrazol-1-yl)propan-2-yl)oxy)-4-chlorophenyl)pyrimidin-2-yl)amino)-3-(trifluoromethyl)-1H-pyrazol-1-yl)cyclohexyl)-3-(trifluoromethyl)azetidin-3-ol] was run?
**A.** The pIC50 was 7.00 to 8.00.

**Q.** `COCCN1CC2(CC(n3cc(Nc4ncc(-c5ccc(Cl)c(O[C@@H](C)Cn6cnnn6)c5)cn4)c(C(C)C)n3)C2)C1` [Example 1012, (S)-5-(3-((1-(1H-tetrazol-1-yl)propan-2-yl)oxy)-4-chlorophenyl)-N-(3-isopropyl-1-(2-(2-methoxyethyl)-2-azaspiro[3.3]heptan-6-yl)-1H-pyrazol-4-yl)pyrimidin-2-amine] was tested. Which pIC50 [4] did it give?
**A.** The pIC50 was over 8.00.

**Q.** How did the pIC50 [1] turn out when `C[C@@H](Cn1cnnn1)Oc1cc(-c2cnc(Nc3cc4c(cc3C3CC3)CCN(C3COC3)C4)nc2)ccc1C#N` [Example 524, (S)-2-((1-(1H-tetrazol-1-yl)propan-2-yl)oxy)-4-(2-((6-cyclopropyl-2-(oxetan-3-yl)-1,2,3,4-tetrahydroisoquinolin-7-yl)amino)pyrimidin-5-yl)benzonitrile] was run?
**A.** Its pIC50 is 7.00 to 8.00.

**Q.** How did the pIC50 [3] turn out when `C[C@@H](Cn1cnnn1)Oc1cc(-c2cnc(Nc3cn(C4CN(C5COC5)C4)nc3C(F)(F)F)nc2)ccc1Cl` [Example 699, (S)-5-(3-((1-(1H-tetrazol-1-yl)propan-2-yl)oxy)-4-chlorophenyl)-N-(1-(1-(oxetan-3-yl)azetidin-3-yl)-3-(trifluoromethyl)-1H-pyrazol-4-yl)pyrimidin-2-amine] was run?
**A.** The pIC50 was 7.00 to 8.00.
